Laboratory results from US12077503B2, “Substituted cyclic amides and their use as herbicides” (FMC CORPORATION, priority 2015, dated 2024).
Where two headings read alike, the source gives them in different places.

Legend:
Format in all cases: in vivo
[1] = tested on: barnyardgrass (Echinochloa crus-galli); assay: Test A postemergence; conditions: Echinochloa crus-galli, post-emergence, 240 h, postemergence; for pest or weed control at 125 g/ha: 125 g ai/ha; for pest or weed control at 500 g/ha: 500 g ai/ha, 0 to 100 scale, 0 is no effect, 100 is complete control
Summary of the method: (§1)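 Visual injury, scored on a 0–100 scale relative to untreated controls, was recorded about 10 d after application. Treatments were a preemergence soil spray over planted seeds or a postemergence spray on plants at the one- to two-leaf stage, 2 to 10 cm tall, all in loam soil–sand blend in the greenhouse.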

[2] = tested on: ragweed (common ragweed, Ambrosia elatior); assay: Test A postemergence; conditions: Ambrosia artemisiifolia, post-emergence, 240 h, postemergence; for pest or weed control at 125 g/ha: 125 g ai/ha; for pest or weed control at 500 g/ha: 500 g ai/ha, 0 to 100 scale, 0 is no effect, 100 is complete control
Summary of the method: as §1

[3] = tested on: blackgrass (Alopecurus myosuroides); assay: Test A postemergence; conditions: Alopecurus myosuroides, post-emergence, 240 h, postemergence; for pest or weed control at 125 g/ha: 125 g ai/ha; for pest or weed control at 500 g/ha: 500 g ai/ha, 0 to 100 scale, 0 is no effect, 100 is complete control
Summary of the method: as §1

[4] = tested on: pigweed (Amaranthus retroflexus); assay: Test A postemergence; conditions: Amaranthus retroflexus, post-emergence, 240 h, postemergence; for pest or weed control at 125 g/ha: 125 g ai/ha; for pest or weed control at 500 g/ha: 500 g ai/ha, 0 to 100 scale, 0 is no effect, 100 is complete control
Summary of the method: as §1

Kochia (Kochia scoparia) = assay: Test A postemergence; conditions: Bassia scoparia, post-emergence, 240 h, postemergence; for pest or weed control at 125 g/ha: 125 g ai/ha; for pest or weed control at 500 g/ha: 500 g ai/ha, 0 to 100 scale, 0 is no effect, 100 is complete control
Summary of the method: as §1

[5] = tested on: ryegrass, Italian (Italian ryegrass, Lolium multiflorum); assay: Test A postemergence; conditions: Lolium multiflorum, post-emergence, 240 h, postemergence; for pest or weed control at 125 g/ha: 125 g ai/ha; for pest or weed control at 500 g/ha: 500 g ai/ha, 0 to 100 scale, 0 is no effect, 100 is complete control
Summary of the method: as §1

[6] = tested on: Galium (catchweed bedstraw, Galium aparine); assay: Test A postemergence; conditions: Galium, post-emergence, 240 h, postemergence; for pest or weed control at 125 g/ha: 125 g ai/ha; for pest or weed control at 500 g/ha: 500 g ai/ha, 0 to 100 scale, 0 is no effect, 100 is complete control
Summary of the method: as §1

[7] = tested on: giant foxtail (Setaria faberii); assay: Test A postemergence; conditions: Setaria faberi, post-emergence, 240 h, postemergence; for pest or weed control at 125 g/ha: 125 g ai/ha; for pest or weed control at 500 g/ha: 500 g ai/ha, 0 to 100 scale, 0 is no effect, 100 is complete control
Summary of the method: as §1

[8] = tested on: wheat (Triticum aestivum); assay: Test A postemergence; conditions: Triticum aestivum, post-emergence, 240 h, postemergence; for plant injury at 125 g/ha: 125 g ai/ha; for plant injury at 500 g/ha: 500 g ai/ha, 0 to 100 scale, 0 is no effect, 100 is complete control
Summary of the method: as §1

corn (Zea mays) = assay: Test A postemergence; conditions: Zea mays, post-emergence, 240 h, postemergence; for plant injury at 125 g/ha: 125 g ai/ha; for plant injury at 500 g/ha: 500 g ai/ha, 0 to 100 scale, 0 is no effect, 100 is complete control
Summary of the method: as §1

[9] = tested on: barnyardgrass (Echinochloa crus-galli); assay: Test A preemergence; conditions: Echinochloa crus-galli, pre-emergence, 240 h; for pest or weed control at 125 g/ha: 125 g ai/ha; for pest or weed control at 500 g/ha: 500 g ai/ha
Summary of the method: as §1

[10] = tested on: barnyardgrass (Echinochloa crus-galli); assay: Test B flooded paddy test; conditions: Echinochloa crus-galli, 250 g ai/ha, Flood, read-out: Barnyardgrass plant response rating
Summary of the method: (§2)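 Compound goes directly into floodwater once pots are flooded 3 cm above soil, targeting plants at two leaves; the water depth is then held for the test duration. Plants sit 13–15 d in a greenhouse and are rated visually, 100 denoting complete control.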

[11] = tested on: ducksalad (Heteranthera limosa); assay: Test B flooded paddy test; conditions: Heteranthera limosa, 250 g ai/ha, Flood, read-out: Ducksalad plant response rating
Summary of the method: as §2

[12] = tested on: sedge, umbrella (small-flower umbrella sedge, Cyperus difformis); assay: Test B flooded paddy test; conditions: Cyperus difformis, 250 g ai/ha, Flood, read-out: Sedge, Umbrella plant response rating
Summary of the method: as §2

rice (Oryra sativa) = assay: Test B flooded paddy test; conditions: Oryza sativa, 250 g ai/ha, Flood, read-out: Rice plant response rating
Summary of the method: as §2

[13] = visual injury on 0 to 100 scale (0 no effect, 100 complete control), approx. 10 d, read-out: Barnyardgrass plant response rating
[14] = read-out: Barnyardgrass plant response rating
[15] = visual injury on 0 to 100 scale (0 no effect, 100 complete control), approx. 10 d, read-out: Ragweed plant response rating
[16] = read-out: Ragweed plant response rating
[17] = visual injury on 0 to 100 scale (0 no effect, 100 complete control), approx. 10 d, read-out: Blackgrass plant response rating
[18] = read-out: Blackgrass plant response rating
[19] = visual injury on 0 to 100 scale (0 no effect, 100 complete control), approx. 10 d, read-out: Pigweed plant response rating
[20] = read-out: Pigweed plant response rating
[21] = visual injury on 0 to 100 scale (0 no effect, 100 complete control), approx. 10 d, read-out: Kochia plant response rating
[22] = read-out: Kochia plant response rating
[23] = visual injury on 0 to 100 scale (0 no effect, 100 complete control), approx. 10 d, read-out: Ryegrass, Italian plant response rating
[24] = read-out: Ryegrass, Italian plant response rating
[25] = visual injury on 0 to 100 scale (0 no effect, 100 complete control), approx. 10 d, read-out: Galium plant response rating
[26] = read-out: Galium plant response rating
[27] = visual injury on 0 to 100 scale (0 no effect, 100 complete control), approx. 10 d, read-out: Foxtail, Giant plant response rating
[28] = read-out: Foxtail, Giant plant response rating
[29] = visual injury on 0 to 100 scale (0 no effect, 100 complete control), approx. 10 d, read-out: Wheat plant response rating
[30] = read-out: Wheat plant response rating
[31] = visual injury on 0 to 100 scale (0 no effect, 100 complete control), approx. 10 d, read-out: Corn plant response rating
[32] = read-out: Corn plant response rating
[33] = preemergence, visual injury rating about 10 d after treatment, 0 to 100 scale (0 no effect, 100 complete control), read-out: Barnyardgrass plant response rating
[34] = 0 to 100 scale where 0 is no effect and 100 is complete control
[35] = scale of 0 to 100 where 0 is no effect and 100 is complete control

SMILES | pest or weed control at 125 g/ha [1, 13] [%] | pest or weed control at 500 g/ha [1, 14] [%] | pest or weed control at 125 g/ha [2, 15] [%] | pest or weed control at 500 g/ha [2, 16] [%] | pest or weed control at 125 g/ha [3, 17] [%] | pest or weed control at 500 g/ha [3, 18] [%] | pest or weed control at 125 g/ha [4, 19] [%] | pest or weed control at 500 g/ha [4, 20] [%] | pest or weed control at 125 g/ha (Kochia (Kochia scoparia); [21]) [%] | pest or weed control at 500 g/ha (Kochia (Kochia scoparia); [22]) [%] | pest or weed control at 125 g/ha [5, 23] [%] | pest or weed control at 500 g/ha [5, 24] [%] | pest or weed control at 125 g/ha [6, 25] [%] | pest or weed control at 500 g/ha [6, 26] [%] | pest or weed control at 125 g/ha [7, 27] [%] | pest or weed control at 500 g/ha [7, 28] [%] | plant injury at 125 g/ha [8, 29] [%] | plant injury at 500 g/ha [8, 30] [%] | plant injury at 125 g/ha (corn (Zea mays); [31]) [%] | plant injury at 500 g/ha (corn (Zea mays); [32]) [%] | also measured
O=C1NC[C@H](c2cc(C(F)F)cs2)[C@H]1C(=O)Nc1ccccc1F [Compound 1116] | 30 | 60 | 0 | 0 | 0 | 30 | 0 | 0 | 0 | 30 | 0 | 20 | 0 | 40 | 0 | 0 | 0 | 20 | 0 | 0 | pest or weed control at 125 g/ha ([9]; preemergence, 0 to 100 scale where 0 is no effect and 100 is complete control, approx. 10 d, read-out: Barnyardgrass plant response rating): 90%; pest or weed control at 500 g/ha [9, 33]: 90%; pest or weed control at 250 g/ha [10, 34]: 50%; pest or weed control at 250 g/ha [11, 34]: 100%; pest or weed control at 250 g/ha [12, 34]: 75%; pest or weed control at 250 g/ha (rice (Oryra sativa); [34]): 20%
CCc1cccc([C@H]2CCNC(=O)[C@@H]2C(=O)Nc2cccc(F)c2F)c1 [Compound 1058] | 70 | 90 | 80 | 90 | 30 | 40 | 0 | 0 | 0 | 20 | 0 | 0 | 50 | 60 | 0 | 0 | 0 | 0 | 0 | 30 | pest or weed control at 125 g/ha ([9]; Preemergence, visual injury rating after approximately 10 d, read-out: Barnyardgrass plant response rating (0 to 100 scale, 0 is no effect, 100 is complete control)): 90%; pest or weed control at 500 g/ha [9, 33]: 100%; pest or weed control at 250 g/ha [10, 34]: 35%; pest or weed control at 250 g/ha [11, 34]: 0%; pest or weed control at 250 g/ha [12, 34]: 0%; pest or weed control at 250 g/ha (rice (Oryra sativa); [34]): 25%
CN1C[C@H](c2cc(F)c(F)c(F)c2)[C@@H](C(=O)Nc2ccccc2F)C1=O [Compound 878] | – | – | – | – | – | – | – | – | – | – | – | – | – | – | – | – | – | – | – | – | pest or weed control at 125 g/ha ([1]; visual injury rating after approximately 10 d, read-out: Barnyardgrass plant response rating (0 to 100 scale, 0 no effect, 100 complete control)): 100%; pest or weed control at 125 g/ha ([2]; visual injury rating after approximately 10 d, read-out: Ragweed plant response rating (0 to 100 scale, 0 no effect, 100 complete control)): 20%; pest or weed control at 125 g/ha ([3]; visual injury rating after approximately 10 d, read-out: Blackgrass plant response rating (0 to 100 scale, 0 no effect, 100 complete control)): 60%; pest or weed control at 125 g/ha ([4]; visual injury rating after approximately 10 d, read-out: Pigweed plant response rating (0 to 100 scale, 0 no effect, 100 complete control)): 0%; pest or weed control at 125 g/ha (Kochia (Kochia scoparia); visual injury rating after approximately 10 d, read-out: Kochia plant response rating (0 to 100 scale, 0 no effect, 100 complete control)): 20%; pest or weed control at 125 g/ha ([5]; visual injury rating after approximately 10 d, read-out: Ryegrass, Italian plant response rating (0 to 100 scale, 0 no effect, 100 complete control)): 40%; pest or weed control at 125 g/ha ([6]; visual injury rating after approximately 10 d, read-out: Galium plant response rating (0 to 100 scale, 0 no effect, 100 complete control)): 50%; pest or weed control at 125 g/ha ([7]; visual injury rating after approximately 10 d, read-out: Foxtail, Giant plant response rating (0 to 100 scale, 0 no effect, 100 complete control)): 80%; plant injury at 125 g/ha ([8]; visual injury rating after approximately 10 d, read-out: Wheat plant response rating (0 to 100 scale, 0 no effect, 100 complete control)): 60%; plant injury at 125 g/ha (corn (Zea mays); visual injury rating after approximately 10 d, read-out: Corn plant response rating (0 to 100 scale, 0 no effect, 100 complete control)): 50%; pest or weed control at 125 g/ha ([9]; preemergence, 0 to 100 scale where 0 is no effect and 100 is complete control, read-out: Barnyardgrass plant response rating): 100%; pest or weed control at 500 g/ha ([9]; Preemergence, visual injury vs untreated controls after approximately 10 d, read-out: Barnyardgrass plant response rating (0 to 100 scale where 0 is no effect and 100 is complete control)): 100%; pest or weed control at 250 g/ha [10, 35]: 85%; pest or weed control at 250 g/ha [11, 35]: 100%; pest or weed control at 250 g/ha [12, 35]: 0%; pest or weed control at 250 g/ha (rice (Oryra sativa); [35]): 0%
